In the supplement of paper PMC11451515:

Tested on: NOMO1
Assay: cell viability relative to DMSO control; higher = less cytotoxic
Settings: 48 h
Summary of the method: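 Viability values are per-plate percentages of DMSO wells, with background from cell-free wells. Library compounds in DMSO were pin-dosed, in an 11-point threefold series from 47 μM to 0.79 nM, onto NOMO1 or SEM (500 cells/well) or P12-Ichikawa (1000 cells/well) leukemia cells in 1536-well plates (5 μl). Those cells had been adapted for at least four passages in each medium, and CellTiter-Glo One luminescence was read after 48 h at 37°C.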

[1] = HPLM + 10% dialyzed FBS, 0.000781 µM
[2] = HPLM + 10% dialyzed FBS, 0.00234 µM
[3] = HPLM + 10% dialyzed FBS, 0.00702 µM
[4] = HPLM + 10% dialyzed FBS, 0.0211 µM
[5] = HPLM + 10% dialyzed FBS, 0.0632 µM
[6] = HPLM + 10% dialyzed FBS, 0.19 µM
[7] = HPLM + 10% dialyzed FBS, 0.569 µM
[8] = HPLM + 10% dialyzed FBS, 1.71 µM
[9] = HPLM + 10% dialyzed FBS, 5.12 µM
[10] = HPLM + 10% dialyzed FBS, 15.4 µM
[11] = HPLM + 10% dialyzed FBS, 46.1 µM
[12] = RPMI 5 mM glucose + 10% FBS, 0.000781 µM
[13] = RPMI 5 mM glucose + 10% FBS, 0.00234 µM
[14] = RPMI 5 mM glucose + 10% FBS, 0.00702 µM
[15] = RPMI 5 mM glucose + 10% FBS, 0.0211 µM
[16] = RPMI 5 mM glucose + 10% FBS, 0.0632 µM
[17] = RPMI 5 mM glucose + 10% FBS, 0.19 µM
[18] = RPMI 5 mM glucose + 10% FBS, 0.569 µM
[19] = RPMI 5 mM glucose + 10% FBS, 1.71 µM
[20] = RPMI 5 mM glucose + 10% FBS, 5.12 µM
[21] = RPMI 5 mM glucose + 10% FBS, 15.4 µM
[22] = RPMI 5 mM glucose + 10% FBS, 46.1 µM
[23] = RPMI 5 mM glucose + 10% dialyzed FBS, 0.000781 µM
[24] = RPMI 5 mM glucose + 10% dialyzed FBS, 0.00234 µM
[25] = RPMI 5 mM glucose + 10% dialyzed FBS, 0.00702 µM
[26] = RPMI 5 mM glucose + 10% dialyzed FBS, 0.0211 µM
[27] = RPMI 5 mM glucose + 10% dialyzed FBS, 0.0632 µM
[28] = RPMI 5 mM glucose + 10% dialyzed FBS, 0.19 µM
[29] = RPMI 5 mM glucose + 10% dialyzed FBS, 0.569 µM
[30] = RPMI 5 mM glucose + 10% dialyzed FBS, 1.71 µM
[31] = RPMI 5 mM glucose + 10% dialyzed FBS, 5.12 µM
[32] = RPMI 5 mM glucose + 10% dialyzed FBS, 15.4 µM
[33] = RPMI 5 mM glucose + 10% dialyzed FBS, 46.1 µM

| Compound | cell viability [1] [%] | cell viability [2] [%] | cell viability [3] [%] | cell viability [4] [%] | cell viability [5] [%] | cell viability [6] [%] | cell viability [7] [%] | cell viability [8] [%] | cell viability [9] [%] | cell viability [10] [%] | cell viability [11] [%] | cell viability [12] [%] | cell viability [13] [%] | cell viability [14] [%] | cell viability [15] [%] | cell viability [16] [%] | cell viability [17] [%] | cell viability [18] [%] | cell viability [19] [%] | cell viability [20] [%] | cell viability [21] [%] | cell viability [22] [%] | cell viability [23] [%] | cell viability [24] [%] | cell viability [25] [%] | cell viability [26] [%] | cell viability [27] [%] | cell viability [28] [%] | cell viability [29] [%] | cell viability [30] [%] | cell viability [31] [%] | cell viability [32] [%] | cell viability [33] [%] |
| --- | --- | --- | --- | --- | --- | --- | --- | --- | --- | --- | --- | --- | --- | --- | --- | --- | --- | --- | --- | --- | --- | --- | --- | --- | --- | --- | --- | --- | --- | --- | --- | --- | --- |
| CC(C)(O)CNc1nc(Nc2ccnc(C(F)(F)F)c2)nc(-c2cccc(C(F)(F)F)n2)n1 | 99.2 | 99.4 | 131 | 120 | 146 | 122 | 134 | 114 | 99.4 | 85.8 | 72.8 | 112 | 115 | 102 | 109 | 118 | 106 | 103 | 123 | 43.7 | 50.3 | 48.7 | 105 | 110 | 120 | 115 | 121 | 117 | 109 | 114 | 56.3 | 53.2 | 62.5 |
| COc1cc2nc(-c3ccc(N4CCN(C)CC4)cc3)nc(NCCN3CCOCC3)c2cc1OC | 115 | 112 | 110 | 125 | 113 | 97.9 | 48.8 | 35 | 22.6 | 18.8 | 1.8 | 102 | 103 | 99 | 94.5 | 98.7 | 100 | 84 | 47 | 18.1 | 9.07 | 2.08 | 114 | 111 | 103 | 107 | 111 | 95 | 63.7 | 28.3 | 11.1 | 7.69 | 1.71 |
| N/C(=N\C(=O)c1nc(Cl)c(N)nc1N)NCc1ccccc1 | 81 | 99.5 | 90.7 | 118 | 108 | 108 | 109 | 109 | 97.6 | 76.2 | 36.9 | 80.5 | 92.8 | 83.7 | 88.3 | 93.5 | 89 | 99 | 87.8 | 92.8 | 72.4 | 28.5 | 83.1 | 97 | 96.2 | 90.8 | 104 | 100 | 107 | 111 | 87.4 | 84.2 | 49.1 |
| CC(C)[C@H](CO)Nc1nc(Nc2ccc(C(=O)O)c(Cl)c2)c2ncn(C(C)C)c2n1 | 116 | 126 | 122 | 132 | 128 | 118 | 109 | 108 | 79.4 | 107 | 29.6 | 119 | 116 | 118 | 128 | 134 | 131 | 131 | 115 | 87.3 | 111 | 36.1 | 122 | 125 | 123 | 137 | 124 | 140 | 127 | 122 | 90.7 | 137 | 44.1 |
| COc1cc(/C=C/C(=O)CC(=O)/C=C/c2ccc(O)c(OC)c2)ccc1O | 105 | 105 | 118 | 111 | 112 | 123 | 114 | 115 | 99.8 | 42.3 | 5.01 | 97.4 | 93.6 | 103 | 108 | 106 | 105 | 102 | 115 | 102 | 73.2 | 7.35 | 105 | 105 | 106 | 106 | 118 | 112 | 104 | 104 | 101 | 79.9 | 10.1 |
| COc1ccc(CCC(=O)Nc2nc3ccc(Cl)cc3s2)cc1OC | 120 | 106 | 111 | 135 | 122 | 126 | 123 | 101 | 106 | 122 | 86.2 | 107 | 104 | 113 | 105 | 122 | 117 | 113 | 94.4 | 105 | 100 | 96.6 | 114 | 99.3 | 119 | 108 | 120 | 110 | 106 | 102 | 104 | 98.2 | 91.2 |
| c1ccc2c(Oc3nc(Nc4ccc(N5CCOCC5)cc4)c4ncn(C5CCCCC5)c4n3)cccc2c1 | – | – | – | – | – | – | – | – | – | – | – | 113 | 117 | 129 | 127 | 126 | 133 | 131 | 149 | 132 | 153 | 136 | 102 | 121 | 126 | 143 | 125 | 146 | 139 | 127 | 123 | 124 | 135 |
